# Assay results reported in patent US20160229835A1, “NOVEL PYRIDYLOXYACETYL TETRAHYDROISOQUINOLINE COMPOUNDS USEFUL AS NAMPT INHIBITORS” (ELI LILLY AND COMPANY, priority 2013, published 2016).
# Legend:
# A2780 cells = test: A2780 Proliferation Assay ±NAM (Nicotinamide); assay type: cell-based; details: Homo sapiens, A2780, 72 h, absence of NAM, read-out: IC50 (proliferation of A2780 cells in the absence of NAM)
# Protocol: The purpose of this assay is to measure the ability of a compound to inhibit proliferation of A2780 cells (the NCI-DCTD Tumor repository) dependent on the NAMPT-mediated NAD^+ formation in the presence or absence of higher concentrations of NAM (10 mM) in vitro. The A2780 cell proliferation assay uses assay-ready frozen cells. To prepare assay-ready frozen A2780 cells, A2780 cells, an ovarian cancer cell line, are cultured in growth media containing RPMI 1640 (Gibco 30-2001) supplemented with 10% FBS, in T-150 flasks for 3-4 days. Cells are then treated with 4 mL of 0.25% (v/v) trypsin for 1 minute (Hyclone SH30042). Trypsin-treated cells are then diluted with 10 mL of growth media, and the cell slurry is gently mixed and then decanted to a centrifuge tube. Cells are counted and then pelleted by centrifugation at 1400 rpm for 5 minutes. After centrifugation the supernatant is removed and the cell pellets are re-suspended in GIBCO® RECOVERY™ Cell Culture Freezing Medium (Invitrogen 12648-010) at 2-5×10^6 cells/mL and then aliquoted at 1 mL volumes into cryovials. Cryovials are stored initially at −80° C. for 16 hours, and then transferred to liquid nitrogen for long term storage.
# One day before the planned initiation of compound treatment portion of the assay, one vial of assay ready frozen cells is thawed, and the cells are washed with 50 mL of growth medium. Cells are counted and then diluted to 2.8×10^4 cells/mL and then plated at a rate of 2500 cells/well (90 μL per well) to BD Poly-D-Lysine, 96 well black plates (BD Biocoat 35-4640). Plates are then covered and incubated overnight under 5% CO2 at 37° C. The next day in a separate plate (V bottom Nunc 249946), a ten-point compound dilution series for each compound is prepared in growth media containing 2% DMSO (v/v, 0.2% final) with or without 100 mM NAM (10 mM final). Then 10 μL of compounds after a ten-point series dilution from either 2 or 0.1 μM (depending potency of each compound) to 50 pM or 5 pM (final) are added to the wells of the cell plates. Cell plates are covered and incubated for 72 hours under 5% CO2 at 37° C.
# On the day of the viability assessment, one vial of GF-AFC substrate (CELL TITER-FLUOR™ Cell Viability Assay Kit, Promega G6081) is vortexed and the substrate is transferred to one vial of thawed CELL TITER-FLUOR™ Assay Buffer. The resulting CELL TITER-FLUOR™ reagent is then vortexed well to thoroughly dissolve the substrate. The CELL TITER-FLUOR™ reagent is then diluted (1:2) in growth medium and 50 μL of diluted CELL TITER-FLUOR™ reagent is added to each well of the cell plate. The cell plate is covered and incubated under 5% CO2 at 37° C. for 1-3 hours. Finally the cell plates are removed from the incubator and the well fluorescence is measured on an Envision® Multilabel Reader (Perkin Elmer, λeX 355/λem 495). Fluorescence from compound treated wells is compared to the no cell and no compound treatment control wells to calculate percent inhibition. The percent inhibition and ten-point compound concentration data is fit to a four-parameter logistic equation using ACTIVITYBASE 4.0 Equation 205. Each compound is tested 2-4 times in this assay.
# [1] = test system: NAMPT-mediated NAD+/NMN formation in A2780 tumor cells; test: Assay for NAD+/NMN Levels in A2780 Cells; assay type: cell-based; details: Homo sapiens, A2780, 24 h, 24 hours treatment, averaged
# Protocol: A2780 (the NCI-DCTD Tumor repository) tumor cells, an ovarian cancer cell line, are cultured in RPMI 1640 (SH30255.01, Hyclone) supplemented with 10% FBS. […] FK866 (100 nM) is also included as a positive control for maximum inhibition (100%). Each compound is tested 1-4 times in this assay.
# To assess NAD^+/NMN levels in the cell, A2780 cells grown in the above referenced 96-well plates are lysed with RIPA buffer (Pierce) followed by addition of 50 μL of 0.2 N HCl. The resulting cell lysates are incubated at 60° C. for 10 minutes and neutralized with 50 μL of 0.2 N NaOH. After centrifugation at 2000×g for 15 minutes, the supernatants (50 μL) are collected. The NAD^+/NMN assays are described by Putt and Hergenrother (Putt, K. S, and Hergenrother, P. J., An enzymatic assay for poly(ADP-ribose) polymerase-1 (PARP-1) via the chemical quantitation of NAD^+: application to the high-throughput screening of small molecules as potential inhibitors. Analytical Biochemistry, 2004, 326, 78-86) with modifications. The resulting lysates are mixed with 20 μL of 0.2 N KOH and 20 μL of 20% acetophenone, and incubated at 90° C. for 10 minutes followed by addition of 90 μL of formic acid. After incubation at 90° C. for 10 minutes, the resulting preparations are measured for their fluorescence at the excitation and emission wavelength of 360 and 450 nm, respectively as described by Putt and Hergenrother (2004).
Compound,IC50 (A2780 cells),IC50 [1]
"O=C(CC1CCOCC1)N1CCN(Cc2ccc3c(c2)CCN(C(=O)COc2cccnc2)C3)CC1 [Example 19, 2-(Pyridin-3-yloxy)-1-[6-{[4-(tetrahydro-2H-pyran-4-ylacetyl)piperazin-1-yl]methyl}-3,4-dihydroisoquinolin-2(1H)-yl]ethanone]",< 677 nM,≤ 195 nM
"O=C(CN1CCOCC1)N1CCN(Cc2ccc3c(c2)CCN(C(=O)COc2cccnc2)C3)CC1 [Example 17, 2-(Morpholin-4-yl)-1-[4-({2-[(pyridin-3-yloxy)acetyl]-1,2,3,4-tetrahydroisoquinolin-6-yl}methyl)piperazin-1-yl]ethanone]",< 677 nM,≤ 195 nM
"O=C(CC1CCCCO1)Nc1ccc2c(c1)CCN(C(=O)COc1cccnc1)C2 (single isomer, unassigned; isomer 2) [Example 13, N-[2-[2-(3-Pyridyloxy)acetyl]-3,4-dihydro-1H-isoquinolin-6-yl]-2-tetrahydropyran-2-yl-acetamide (isomer 2)]",< 677 nM,≤ 195 nM
"CN1CCC(S(=O)(=O)Nc2ccc3c(c2)CCN(C(=O)COc2cccnc2)C3)CC1 [Example 9, 1-Methyl-N-{2-[(pyridin-3-yloxy)acetyl]-1,2,3,4-tetrahydroisoquinolin-6-yl}piperidine-4-sulfonamide]",< 677 nM,≤ 195 nM
"O=C(COc1cccnc1)N1CCc2cc(CN3CCN(C(=O)C4CCOCC4)CC3)ccc2C1 [Example 16, 2-(Pyridin-3-yloxy)-1-[6-{[4-(tetrahydro-2H-pyran-4-ylcarbonyl)piperazin-1-yl]methyl}-3,4-dihydroisoquinolin-2(1H)-yl]ethanone]",< 677 nM,≤ 195 nM
"O=C(COc1cccnc1)N1CCc2cc(NS(=O)(=O)CCC(F)(F)F)ccc2C1 [Example 5, 3,3,3-Trifluoro-N-{2-[(pyridin-3-yloxy)acetyl]-1,2,3,4-tetrahydroisoquinolin-6-yl}propane-1-sulfonamide]",< 677 nM,≤ 195 nM
"O=C(COc1cccnc1)N1CCc2cc(NS(=O)(=O)CC3CC3)ccc2C1 [Example 6, 1-Cyclopropyl-N-{2-[(pyridin-3-yloxy)acetyl]-1,2,3,4-tetrahydroisoquinolin-6-yl}methanesulfonamide]",< 677 nM,≤ 195 nM
"O=C(COc1cccnc1)N1CCc2cc(NS(=O)(=O)C3CCN(C4COC4)CC3)ccc2C1 [Example 8, 1-(Oxetan-3-yl)-N-[2-[2-(3-pyridyloxy)acetyl]-3,4-dihydro-1H-isoquinolin-6-yl]piperidine-4-sulfonamide]",< 677 nM,≤ 195 nM
"CC(C)(O)CC(=O)Nc1ccc2c(c1)CCN(C(=O)COc1cccnc1)C2 [Example 15, 3-Hydroxy-3-methyl-N-{2-[(pyridin-3-yloxy)acetyl]-1,2,3,4-tetrahydroisoquinolin-6-yl}butanamide]",< 677 nM,≤ 195 nM
"CCC(C)(O)CC(=O)Nc1ccc2c(c1)CCN(C(=O)COc1cccnc1)C2 (stereo not drawn) [Example 11, 3-Hydroxy-3-methyl-N-[2-[2-(3-pyridyloxy)acetyl]-3,4-dihydro-1H-isoquinolin-6-yl]pentanamide]",< 677 nM,≤ 195 nM
"CC(C)OCCS(=O)(=O)Nc1ccc2c(c1)CCN(C(=O)COc1cccnc1)C2 [Example 7, 2-Isopropoxy-N-[2-[2-(3-pyridyloxy)acetyl]-3,4-dihydro-1H-isoquinolin-6-yl]ethanesulfonamide]",< 677 nM,≤ 195 nM
"CC(O)(CC(=O)Nc1ccc2c(c1)CCN(C(=O)COc1cccnc1)C2)C(F)(F)F (stereo not drawn) [Example 12, 4,4,4-Trifluoro-3-hydroxy-3-methyl-N-[2-[2-(3-pyridyloxy)acetyl]-3,4-dihydro-1H-isoquinlin-6-yl]butanamide]",< 677 nM,≤ 195 nM
"O=C(COc1cccnc1)N1CCc2cc(NS(=O)(=O)c3ccccn3)ccc2C1 [Example 3, N-{2-[(Pyridin-3-yloxy)acetyl]-1,2,3,4-tetrahydroisoquinolin-6-yl}pyridine-2-sulfonamide]",< 677 nM,≤ 195 nM
"CC(C)(C)CC(=O)Nc1ccc2c(c1)CCN(C(=O)COc1cccnc1)C2 [Example 14, 3,3-Dimethyl-N-{2-[(pyridin-3-yloxy)acetyl]-1,2,3,4-tetrahydroisoquinolin-6-yl}butanamide]",< 677 nM,≤ 195 nM
"O=C(COc1cccnc1)N1CCc2cc(NS(=O)(=O)C3CCOCC3)ccc2C1 [Example 4, N-{2-[(Pyridin-3-yloxy)acetyl]-1,2,3,4-tetrahydroisoquinolin-6-yl}tetrahydro-2H-pyran-4-sulfonamide]",< 677 nM,≤ 195 nM
"O=C(COc1cccnc1)N1CCc2cc(NS(=O)(=O)C3CCN(C(=O)C4CCOCC4)CC3)ccc2C1 [Example 10, N-[2-[2-(3-Pyridyloxy)acetyl]-3,4-dihydro-1H-isoquinolin-6-yl]-1-(tetrahydropyran-4-carbonyl)piperidine-4-sulfonamide]",< 677 nM,≤ 195 nM
"CC(C)(O)CC(=O)N1CCN(Cc2ccc3c(c2)CCN(C(=O)COc2cccnc2)C3)CC1 [Example 18, 3-Hydroxy-3-methyl-1-[4-({2-[(pyridin-3-yloxy)acetyl]-1,2,3,4-tetrahydroisoquinolin-6-yl}methyl)piperazin-1-yl]butan-1-one]",< 677 nM,≤ 195 nM
"CC(c1ccc2c(c1)CCN(C(=O)COc1cccnc1)C2)N1CCN(C(=O)C2CCOCC2)CC1 (single isomer, unassigned; isomer 2) [Example 20, 2-(3-Pyridyloxy)-1-[6-[1-[4-(tetrahydropyran-4-carbonyl)piperazin-1-yl]ethyl]-3,4-dihydro-1H-isoquinolin-2-yl]ethanone (isomer 2)]",< 677 nM,≤ 195 nM
